Measured values reported in ChEMBL document CHEMBL1201862, “PubChem BioAssay data set” (2004).
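Compound exposure: 48 hours, 5 concentrations, 96-well plates. At the GI50, growth is halved.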 Activity calls are given as the source filed them. Cut-off read from the data, not from the text of the source: active = GI50 up to about 1.1 µM and inactive = higher.

Key:
Assay in all cases: inhibition of tumour cell growth, NCI panel, 48 h
[1] = test system: 786-0
[2] = test system: A498
[3] = test system: A549
[4] = test system: ACHN
[5] = test system: CAKI-1
[6] = test system: CCRF-CEM
[7] = test system: COLO 205
[8] = test system: DLD-1
[9] = test system: DMS-114
[10] = test system: DMS-273
[11] = test system: EKVX
[12] = test system: HCC 2998
[13] = test system: HCT-116
[14] = test system: HCT-15
[15] = test system: HL-60
[16] = test system: HOP-18
[17] = test system: HOP-62
[18] = test system: HT-29
[19] = test system: IGROV-1
[20] = test system: K562
[21] = test system: KM-20L2
[22] = test system: KM12
[23] = test system: LOX IMVI
[24] = test system: LXFL 529
[25] = test system: M14
[26] = test system: M19-MEL
[27] = test system: MOLT-4
[28] = test system: Malme-3M
[29] = test system: NCI-H226
[30] = test system: NCI-H23
[31] = test system: NCI-H460
[32] = test system: NCI-H522
[33] = test system: OVCAR-3
[34] = test system: OVCAR-4
[35] = test system: OVCAR-5
[36] = test system: OVCAR-8
[37] = test system: RXF 393
[38] = test system: RXF 631
[39] = test system: SF-268
[40] = test system: SF-295
[41] = test system: SF-539
[42] = test system: SK-MEL-28
[43] = test system: SK-MEL-2
[44] = test system: SK-MEL-5
[45] = test system: SK-OV-3
[46] = test system: SN12C
[47] = test system: SNB-19
[48] = test system: SNB-75
[49] = test system: SNB-78
[50] = test system: SW-620
[51] = test system: TK-10
[52] = test system: U-251
[53] = test system: UACC-257
[54] = test system: UACC-62
[55] = test system: XF498
[56] = test system: RPMI-8226
[57] = test system: SR
[58] = test system: UO-31

CCOC(=O)c1nc2ccc([N+](=O)[O-])cc2c2c1CCO2
GI50 [1]: > 100 µM (inactive) | GI50 [2]: > 100 µM (inactive) | GI50 [3]: > 100 µM (inactive) | GI50 [4]: > 100 µM (inactive) | GI50 [5]: > 100 µM (inactive) | GI50 [6]: > 100 µM (inactive) | GI50 [7]: > 100 µM (inactive) | GI50 [8]: > 100 µM (inactive) | GI50 [9]: > 100 µM (inactive) | GI50 [10]: > 100 µM (inactive) | GI50 [11]: > 100 µM (inactive) | GI50 [12]: > 100 µM (inactive) | GI50 [13]: > 100 µM (inactive) | GI50 [14]: > 100 µM | GI50 [15]: > 100 µM (inactive) | GI50 [16]: 71 µM (inactive) | GI50 [17]: > 100 µM (inactive) | GI50 [18]: > 100 µM (inactive) | GI50 [19]: > 100 µM (inactive) | GI50 [20]: > 100 µM (inactive) | GI50 [21]: > 100 µM (inactive) | GI50 [22]: > 100 µM (inactive) | GI50 [23]: > 100 µM (inactive) | GI50 [24]: > 100 µM (inactive) | GI50 [25]: > 100 µM (inactive) | GI50 [26]: > 100 µM (inactive) | GI50 [27]: > 100 µM (inactive) | GI50 [28]: > 100 µM (inactive) | GI50 [29]: > 100 µM (inactive) | GI50 [30]: > 100 µM (inactive) | GI50 [31]: > 100 µM (inactive) | GI50 [32]: 92.3 µM (inactive) | GI50 [33]: > 100 µM (inactive) | GI50 [34]: > 100 µM (inactive) | GI50 [35]: > 100 µM (inactive) | GI50 [36]: > 100 µM (inactive) | GI50 [37]: > 100 µM (inactive) | GI50 [38]: > 100 µM (inactive) | GI50 [39]: > 100 µM (inactive) | GI50 [40]: > 100 µM (inactive) | GI50 [41]: > 100 µM (inactive) | GI50 [42]: > 100 µM (inactive) | GI50 [43]: > 100 µM (inactive) | GI50 [44]: > 100 µM (inactive) | GI50 [45]: > 100 µM (inactive) | GI50 [46]: > 100 µM (inactive) | GI50 [47]: > 100 µM (inactive) | GI50 [48]: 41.3 µM (inactive) | GI50 [49]: > 100 µM (inactive) | GI50 [50]: > 100 µM (inactive) | GI50 [51]: > 100 µM (inactive) | GI50 [52]: > 100 µM (inactive) | GI50 [53]: > 100 µM (inactive) | GI50 [54]: > 100 µM (inactive) | GI50 [55]: > 100 µM (inactive)

CC1=C(C(=O)Nc2ccccc2)C(c2cc(Cl)cc(Cl)c2)C(C(=O)Nc2ccccc2)=C(C)N1
GI50 [1]: 9.04 µM (inactive) | GI50 [2]: 22.6 µM (inactive) | GI50 [3]: 20.8 µM (inactive) | GI50 [4]: 8.15 µM (inactive) | GI50 [5]: 12.1 µM (inactive) | GI50 [6]: 3.02 µM (inactive) | GI50 [7]: 17 µM (inactive) | GI50 [8]: 4.14 µM (inactive) | GI50 [9]: 4.26 µM (inactive) | GI50 [10]: 10.2 µM (inactive) | GI50 [11]: 17.4 µM (inactive) | GI50 [12]: 11.6 µM (inactive) | GI50 [13]: 9.53 µM (inactive) | GI50 [14]: 1.71 µM | GI50 [15]: 1.78 µM (inactive) | GI50 [16]: 12.5 µM (inactive) | GI50 [17]: 13.6 µM (inactive) | GI50 [18]: 4.65 µM (inactive) | GI50 [19]: 16.1 µM (inactive) | GI50 [20]: 1.35 µM (inactive) | GI50 [21]: 9.06 µM (inactive) | GI50 [22]: 2.92 µM (inactive) | GI50 [23]: 4.79 µM (inactive) | GI50 [24]: 3.77 µM (inactive) | GI50 [25]: 12.4 µM (inactive) | GI50 [26]: 10.4 µM (inactive) | GI50 [27]: 3.54 µM (inactive) | GI50 [28]: 14.4 µM (inactive) | GI50 [29]: 15.1 µM (inactive) | GI50 [30]: 5.37 µM (inactive) | GI50 [31]: 18.6 µM (inactive) | GI50 [32]: 5.36 µM (inactive) | GI50 [33]: 8.22 µM (inactive) | GI50 [34]: 2.43 µM (inactive) | GI50 [35]: 19.4 µM (inactive) | GI50 [36]: 10.5 µM (inactive) | GI50 [56]: 3.84 µM (inactive) | GI50 [37]: 12.9 µM (inactive) | GI50 [38]: 18 µM (inactive) | GI50 [39]: 9.79 µM (inactive) | GI50 [40]: 10.9 µM (inactive) | GI50 [41]: 14.8 µM (inactive) | GI50 [42]: 14.2 µM (inactive) | GI50 [43]: 12.1 µM (inactive) | GI50 [44]: 13.8 µM (inactive) | GI50 [45]: 36.8 µM (inactive) | GI50 [46]: 10.8 µM (inactive) | GI50 [47]: 14.2 µM (inactive) | GI50 [48]: 10.8 µM (inactive) | GI50 [49]: 17.1 µM (inactive) | GI50 [57]: 2.72 µM (inactive) | GI50 [50]: 8.28 µM (inactive) | GI50 [51]: 16.7 µM (inactive) | GI50 [52]: 3.33 µM (inactive) | GI50 [53]: 12.3 µM (inactive) | GI50 [54]: 3.94 µM (inactive) | GI50 [58]: 13.9 µM (inactive) | GI50 [55]: 13.4 µM (inactive)
